Measurements published in patent US6440978B2, “Therapeutic agent for dermatitis” (Nippon Zoki Pharmaceutical Co., Ltd., priority 2000, dated 2002).

Assays:
[1] = tested on: antigen-induced flare-up reaction in a mouse; assay: Suppressive action against antigen-induced flare-up reaction in a mouse; assay type: in vivo, BALB/c female mice; conditions: 0.12% ointment
Experimental: (§1) Seven week old BALB/c female (SPF) mice of were selected as subjects. According to a method of Tanaka, et al. (Allergy, 46, pages 42-48(1997)), egg white albumin (final concentration: 2 μg/mL) and aluminum hydroxide gel (final concentration: 10 mg/mL) were suspended in physiological saline and 0.5 mL of the suspension was administered to effect intraperitoneal sensitization on the first day of the test. On the 14th day of the test, an additional sensitization was carried out under the same conditions. Further, on the 28th day of the test, 25 μL of egg albumin (a 20 μg/mL solution in physiological saline) was intradermally administered to the right ear of a mouse to induce a swelling reaction.
(§2) This swelling reaction reached its peak at 4 hours after the challenge by the antigen. Even after 24 to 48 hours, a significant swelling reaction was noted as compared with the control in which antigen was merely challenged (not sensitized). […] On the contrary, the swelling from 24 to 48 hours after the challenge is thought to be the so-called delayed-type swelling reaction accompanied by infiltration of eosinophils, neutrophils and lymphocytes. In addition, a flare-up reaction having a peak at 24 hours after the challenge appeared on the ear of the antigen-induced site. Like swelling, flare-up is an important symptom of inflammation. Although the mechanism of the flare-up reaction is ambiguous, it may be a flare-up reaction of a delayed type in view of the time course of its expression. As such, this model animal in which the inflammation of both immediate and delayed types are induced is appropriate as a model animal for atopic dermatitis. In the following experiment, the effectiveness of the therapeutic agent for dermatitis according to the present invention was tested using the said model animal.
Each of a vehicle (control) and an agent for the test (the therapeutic agent for dermatitis according to the present invention or a positive control) was applied to the antigen-induced site (right auricle) of a mouse to induce a swelling reaction in accordance with Example 2 at 2 hours before and 4 hours after the challenge. The right ear was observed by naked eye and the degree of flare-up was scored according to the following standard:
1: in such a degree that a flare-up was confirmed, the color is clear red or pale red and the size was small
2: between score 3 and score 1
3: color of the flare-up was clearly red and the size of the flare-up was big

ear of a normal mouse = assay: Influence of repeated application on the ear thickness of a normal mouse; assay type: in vivo
Experimental: The therapeutic agent for dermatitis according to the present invention or the positive control (steroid preparation) was applied twice daily to the right ear of a normal mouse for a total of nine times and, 2 hours after the final application, the thickness of the ear was measured.

[2] = tested on: antigen-induced swelling reaction in a mouse ear; assay: Suppressive action against antigen-induced swelling reaction in a mouse ear; assay type: in vivo, BALB/c female mice
Experimental: as §1, §2
Each of a vehicle (control) and a test agent (containing the compound of the present invention or a positive control) was applied to the antigen-induced site (right auricle) of a mouse. A swelling reaction was induced in accordance with Example 2 at 2 hours before and 4 hours after the challenge. After the challenge, the thickness of the swelling induced ear was measured by a Dial Thickness Gauge (manufactured by Ozaki Seisakusho). The intensity of the reaction was expressed in terms of an increase in the auricle thickness by deducting the thickness (early value) measured before the challenge from the thickness of the swelling induced ear. The suppression rate of the test drug for ear swelling was calculated by the following formula:
Suppression Rate (%)=100 ×[(Ear Thickness Increase of Vehicle-Only-Control)—(Ear Thickness Increase of the Test Group)]/[(Ear Thickness Increase of the Vehicle-Only-Control)—(Ear Thickness Increase of the Challenge-Only-Group)]

[3] = Table 1, 0.12% ointment, 1 hr after challenge
[4] = Table 1, 0.12% ointment, 8 hr after challenge
[5] = Table 1, 0.12% ointment, 24 hr after challenge
[6] = Table 1, 0.12% ointment, 48 hr after challenge
[7] = Table 2, 0.12% ointment, 24 hr after challenge
[8] = Table 2, 1% ointment, 24 hr after challenge
[9] = Table 2, 3% ointment, 24 hr after challenge

Q: How did the “Suppression Rate of flare-up score at 4 hr after Challenge” value ([1]; 4 hr after challenge) turn out when CCCCC(=O)O[C@]1(C(=O)CO)[C@@H](C)C[C@H]2[C@@H]3CCC4=CC(=O)C=C[C@]4(C)[C@@]3(F)[C@@H](O)C[C@@]21C [Positive Control, betamethasone valerate, reference compound] was run?
A: Its value is “(25.0%)”.

Q: And the “Flare-up Score at 4 hr after Challenge” value ([1]; 4 hr after challenge, score 0-3)?
A: Its value is 0.6 ± 0.

Q: And the “Suppression Rate of flare-up score at 24 hr after Challenge” value ([1]; 24 hr after challenge)?
A: The value was “(40.0%)”.

Q: What about the “Flare-up Score at 24 hr after Challenge” value ([1]; 24 hr after challenge, score 0-3) of the same molecule?
A: The value was 1.5 ± 0.2.

Q: And the “Ear Thickness” value (ear of a normal mouse; 0.12% ointment applied twice daily, nine times in total, 2 hours after final application)?
A: Its value is 18.3 ± 0.5 × 0.01 mm.

Q: And the “influence of repeated application on auricle thickness” value (ear of a normal mouse; positive control ointment, repeated application)?
A: Its value is “significantly reduced the auricle thickness”.

Q: What about the “Ear Thickness Increase at 1 hr after Challenge” value [2, 3] of the same molecule?
A: The value was 8.3 ± 0.7 × 0.01 mm.

Q: What about the “Suppression Rate of ear thickness increase at 1 hr after Challenge” value [2, 3] of the same molecule?
A: Its value is “(45.5%)”.

Q: And the “Ear Thickness Increase at 4 hr after Challenge” value ([2]; Table 1, 0.12% ointment)?
A: The value was 16.3 ± 2.0 × 0.01 mm.

Q: What about the “Suppression Rate of ear thickness increase at 4 hr after Challenge” value ([2]; Table 1, 0.12% ointment) of the same molecule?
A: Its value is “(42.0%)”.

Q: What about the “Ear Thickness Increase at 8 hr after Challenge” value [2, 4] of the same molecule?
A: Its value is 2.0 ± 1.2 × 0.01 mm.

Q: What about the “Suppression Rate of ear thickness increase at 8 hr after Challenge” value [2, 4] of the same molecule?
A: The value was “(49.7%)”.

Q: And the “Ear Thickness Increase at 24 hr after Challenge” value [2, 5]?
A: Its value is 5.0 ± 1.0 × 0.01 mm.

Q: What about the “Suppression Rate of ear thickness increase at 24 hr after Challenge” value [2, 5] of the same molecule?
A: Its value is “(80.0%)”.

Q: What about the “Ear Thickness Increase at 48 hr after Challenge” value [2, 6] of the same molecule?
A: Its value is 2.0 ± 1.0 × 0.01 mm.

Q: And the “Suppression Rate of ear thickness increase at 48 hr after Challenge” value [2, 6]?
A: The value was “(100.0%)”.

Q: And the “Ear Thickness Increase at 4 hr after Challenge” value ([2]; Table 2, 0.12% ointment)?
A: The value was 11.0 ± 0.6 × 0.01 mm.

Q: What about the “Suppression Rate of ear thickness increase at 4 hr after Challenge” value ([2]; Table 2, 0.12% ointment) of the same molecule?
A: The value was “(60.0%)”.

Q: What about the “Ear Thickess Increase at 24 hr after Challenge” value (“Ear Thickess Increase at 24 hr” for short) [2, 7] of the same molecule?
A: The value was 6.3 ± 2.4 × 0.01 mm.

Q: And the “Suppression Rate of ear thickness increase at 24 hr after Challenge” value [2, 7]?
A: The value was “(65.8%)”.

Q: Which “Ear Thickness Increase at 4 hr after Challenge” value ([2]; Table 2, 1% ointment) does the source give for Nc1ccc2c(=O)n(Cc3ccccc3Cl)c(=O)n(-c3ccccc3)c2n1 [Compound 2, 7-amino-3-(2-chlorobenzyl)-1,2,3,4-tetrahydro-1-phenylpyrido[2,3-d]pyrimidin-2,4-dione] here?
A: Its value is 19.5 ± 3.2 × 0.01 mm.

Q: And the “Suppression Rate of ear thickness increase at 4 hr after Challenge” value ([2]; Table 2, 1% ointment)?
A: Its value is “(22.2%)”.

Q: What about the “Ear Thickess Increase at 24 hr” value [2, 8] of the same molecule?
A: Its value is 11.8 ± 2.6 × 0.01 mm.

Q: And the “Suppression Rate of ear thickness increase at 24 hr after Challenge” value [2, 8]?
A: The value was “(30.3%)”.

Q: And the “Ear Thickness Increase at 4 hr after Challenge” value ([2]; Table 2, 3% ointment)?
A: The value was 19.3 ± 2.4 × 0.01 mm.

Q: And the “Suppression Rate of ear thickness increase at 4 hr after Challenge” value ([2]; Table 2, 3% ointment)?
A: Its value is “(23.1%)”.

Q: What about the “Ear Thickess Increase at 24 hr” value [2, 9] of the same molecule?
A: The value was 8.0 ± 1.4 × 0.01 mm.

Q: And the “Suppression Rate of ear thickness increase at 24 hr after Challenge” value [2, 9]?
A: Its value is “(54.8%)”.
